Laboratory results: paper PMC8845285, “Serotoninergic receptor ligands improve Tamoxifen effectiveness on breast cancer cells” (BMC Cancer, 2022)
Where two headings read alike, the source gives them in different places.

How the values were obtained:
[1] = molecular target: T1, serotonin 5-HT2A receptor (Rattus norvegicus, UniProt P14842); experiment: radioligand binding assay, 5-HT2A, [3H]ketanserin; conditions: rat brain cortex; read-out: Ki ± SD, 5-HT2A [3H]Ketanserin
T1 construct: serotonin 5-HT2A receptor, [^3H]ketanserin, rat brain cortex; from tissue; host or cells: rat brain cortex
T1 sequence (P14842 whole entry): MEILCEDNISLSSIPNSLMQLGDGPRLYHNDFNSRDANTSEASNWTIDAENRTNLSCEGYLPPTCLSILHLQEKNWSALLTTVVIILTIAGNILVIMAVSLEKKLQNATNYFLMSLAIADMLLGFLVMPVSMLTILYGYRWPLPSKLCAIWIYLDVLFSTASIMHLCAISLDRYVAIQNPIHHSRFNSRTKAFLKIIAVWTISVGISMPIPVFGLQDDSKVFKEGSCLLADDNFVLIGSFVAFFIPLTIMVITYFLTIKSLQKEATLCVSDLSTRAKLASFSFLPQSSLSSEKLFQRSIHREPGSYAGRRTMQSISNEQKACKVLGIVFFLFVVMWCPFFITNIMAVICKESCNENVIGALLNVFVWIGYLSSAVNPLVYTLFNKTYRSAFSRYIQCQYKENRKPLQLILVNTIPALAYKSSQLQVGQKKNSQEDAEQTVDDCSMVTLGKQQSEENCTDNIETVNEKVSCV
Method: (§1) All reactions were monitored by TLC, carried out on Merck 60G F254 plates with fluorescent indicator and the plates were visualized with UV light (254 nm). Each final compound and intermediate was purified by silica gel column chromatography (Macherey-Nagel 60 0,063–0,2 mm/70–230 mesh). […] Unless otherwise stated, all spectra were recorded in CDCl3. Chemical shifts are reported in ppm using Me4Si as internal standard. The following abbreviations are used to describe peak patterns when appropriate: s (singlet), d (doublet), t (triplet), m (multiplet), q (quartet), qt (quintet), dd (double doublet), ddd (double dd), bs (broad singlet). Mass spectra of the final products were performed on LTQ Orbitrap XL™ Fourier transform mass spectrometer (FTMS) equipped with ESI ION MAX™ source (Thermo Fisher, San José, USA). Melting points were determined using a Buchi B-540 hot-stage instrument and are uncorrected. […] All the compounds were dissolved in 5% DMSO. The following specific radioligands and tissue sources were used: (a)serotonin 5-HT1A receptor, [^3H]-8-OH-DPAT, rat brain cortex; (b) serotonin 5-HT2A receptor, [^3H]ketanserin, rat brain cortex; (c)serotonin 5-HT2C receptor, [^3H]mesulergine, rat brain cortex. Non-specific binding was determined as described in the experimental section, and specific binding as the difference between total and non-specific binding. […] The IC50 values obtained were used to calculate apparent inhibition constants (Ki) by the method of Cheng and Prussoff, from the following equation: Ki = IC50/(1 + S/KD) where S represents the concentration of the hot ligand used and KD its receptor dissociation constant (KD values, obtained by Scatchard analysis, were calculated for each labeled ligand). Radioligand binding assays for 5-HT1A were performed following a published procedure. 5-HT2A and 5-HT2C binding assays were performed reported by Herndon et al..

[2] = test system: MCF7 cells; experiment: MCF7 cell viability, sulforhodamine B assay; type: cell-based, human; conditions: for IC50: Homo sapiens, MCF7
Method: (§2) MCF7 (ER^+, PR^+, HER2^−), SKBR3 (ER^−, PR^+, HER2^+) and MDA-MB231 (ER^−, PR^−, HER2^−) human BC cells and MCF10A non-cancer breast epithelial cells were available in our laboratory. MCF7, SKBR3 and MDA-MB231 cells were cultured in DMEM, supplemented with 10% FBS, 2 mM glutamine, 100 units/ml penicillin and 100 units/ml streptomycin. MCF10A cells were cultured in MEBM, supplemented with 0.4% BPE, 0.1% hEGF, 0.1%, Insulin, 0.1% Hydrocortisone and 0.1% GA-1000. […] Treatment with SER were carried out in culture conditions. Treatment with Tamoxifen and/or SER were carried out upon 48 h estrogen starvation in phenol-red free medium supplemented with 10% Charcoal Stripped (C/S) FBS, 2 mM glutamine, 100 units/ml penicillin and 100 units/ml streptomycin.
(§3) Cells were fixed with 50% trichloroacetic acid for at least 2 h at 4 °C, washed with distilled and de-ionized water, air-dryed and stained 30 min with 0.4% sulforhodamine B in 1% acetic acid. Unbound dye was removed and 10 mM tris-HCl solution (pH 7.5) was added to dissolve the protein-bound dye. Cell survival was assessed by optical density determination at 510 nm using a microplate reader.
After 48 and 72 h, cell viability was assessed by sulforhodamine B assay (see Methods).

[3] = test system: SKBR3 cells; experiment: SKBR3 cell viability, sulforhodamine B assay; type: cell-based, human; conditions: for IC50: Homo sapiens, SK-BR-3, 72 h treatment
Method: as §2, §3
Fig. 3 Effect of SER on SKBR3 cell viability. […] Cell viability was assessed, after 72 h, by sulforhodamine B assay (see Methods).

[4] = test system: MDA-MB231 cells; experiment: MDA-MB231 cell viability, sulforhodamine B assay; type: cell-based, human; conditions: for IC50: Homo sapiens, MDA-MB-231, 72 h treatment
Method: as §2, §3
Cell viability was assessed, after 72 h, by sulforhodamine B assay (see Methods).

[5] = molecular target: T2, serotonin 5-HT1A receptor (Rattus norvegicus, UniProt P19327); experiment: radioligand binding assay, 5-HT1A, [3H]-8-OH-DPAT; conditions: rat brain cortex; read-out: Ki ± SD, 5-HT1A [3H]8OH-DPAT
T2 construct: serotonin 5-HT1A receptor, [^3H]-8-OH-DPAT, rat brain cortex; from tissue; host or cells: rat brain cortex
T2 sequence (P19327 1-422): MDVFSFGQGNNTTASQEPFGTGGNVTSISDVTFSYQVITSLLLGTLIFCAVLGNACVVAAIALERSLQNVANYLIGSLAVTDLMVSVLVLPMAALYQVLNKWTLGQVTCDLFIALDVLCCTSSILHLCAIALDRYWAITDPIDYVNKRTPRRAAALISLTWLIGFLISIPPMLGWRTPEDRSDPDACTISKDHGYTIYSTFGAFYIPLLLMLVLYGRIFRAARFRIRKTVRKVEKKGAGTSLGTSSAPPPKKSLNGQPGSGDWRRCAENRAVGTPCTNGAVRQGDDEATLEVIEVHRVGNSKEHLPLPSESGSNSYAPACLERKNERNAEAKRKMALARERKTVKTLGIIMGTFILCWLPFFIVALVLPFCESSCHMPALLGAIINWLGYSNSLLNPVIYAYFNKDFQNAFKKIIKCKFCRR
Method: as §1

[6] = molecular target: T3, serotonin 5-HT2C receptor (Rattus norvegicus, UniProt P08909); experiment: radioligand binding assay, 5-HT2C, [3H]mesulergine; conditions: read-out: Ki ± SD, 5-HT2C [3H]Mesulergine
T3 construct: serotonin 5-HT2C receptor, [^3H]mesulergine, rat brain cortex; from tissue; host or cells: rat brain cortex
T3 sequence (P08909 33-460): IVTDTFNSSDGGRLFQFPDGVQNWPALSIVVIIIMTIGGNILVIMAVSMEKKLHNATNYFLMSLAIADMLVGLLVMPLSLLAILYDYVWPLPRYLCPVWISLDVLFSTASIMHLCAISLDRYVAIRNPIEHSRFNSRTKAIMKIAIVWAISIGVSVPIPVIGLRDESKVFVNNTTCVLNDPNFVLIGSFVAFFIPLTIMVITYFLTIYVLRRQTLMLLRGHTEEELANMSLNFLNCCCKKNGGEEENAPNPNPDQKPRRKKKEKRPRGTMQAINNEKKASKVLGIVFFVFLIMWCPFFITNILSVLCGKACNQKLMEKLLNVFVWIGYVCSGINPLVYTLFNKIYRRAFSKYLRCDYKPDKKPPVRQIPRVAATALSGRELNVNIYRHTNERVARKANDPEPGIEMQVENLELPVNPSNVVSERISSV
Method: as §1

[7] = 48 h treatment, read-out: IC50 MCF7 48h
[8] = 72 h treatment, read-out: IC50 MCF7

SMILES	Ki [1] [µM]	IC50 [2, 7] [µM]	IC50 [2, 8] [µM]	IC50 [3] [µM]	IC50 [4] [µM]	Ki [5] [µM]	Ki [6] [µM]	reduction of MCF7 cell viability ([2]; 50 μM, 72 h)	reduction of SKBR3 cell viability ([3]; 50 μM, 72 h)	Ki ([6]; rat brain cortex) [µM]	inhibition of MDA-MB231 cell growth ([4]; 100 μM, 72 h)
O=C(NCCCN1CCN(Cc2ccc3c(c2)OCO3)CC1)c1ccccn1 [SER195]	0.0453 ± 0.0057	156 ± 36.1	53.3 ± 8.29	150 ± 26	322 ± 118						
O=C(NCCCN1CCN(C(c2ccc(F)cc2)c2ccc(F)cc2)CC1)c1ccccn1 [SER198]	0.0778 ± 0.0021	106 ± 18.4	10.2 ± 2.5	67.7 ± 8.02	91.3 ± 18.6	0.0527 ± 0.0027	0.117 ± 0.0061	≈ 70%	≈ 50%		
O=C(NCCCN1CCN(C(=O)c2ccco2)CC1)c1ccccn1 [SER196]	0.00168 ± 0.0004	206 ± 50.7	124 ± 31	202 ± 31.2	306 ± 65.8						
O=C(c1ccco1)N1CCN(CC(O)CON2C(=O)C3C4C=CC(C4)C3C2=O)CC1 (stereo not shown) [SER31, 4-[3-[4-(2-furoyl)piperazin-1-yl]propoxy-2-ol]-4-aza-tricyclo [5.2.1.02,6]dec-8-ene-3,5-dione]	> 10	336 ± 153	99.2 ± 33	100 ± 30.8	136 ± 38.6	1.05 ± 0.000231				0.00504 ± 0.000227	able to inhibit
O=C(NCCN1CCN(c2cccc(C(F)(F)F)c2)CC1)c1ccccn1 [SER167]	0.0485 ± 0.0027	151 ± 41.6	54.2 ± 10	152 ± 21.6	223 ± 154	1.32 ± 0.012	0.14 ± 0.0025				
O=C(NCCN1CCN(C(c2ccc(F)cc2)c2ccc(F)cc2)CC1)c1ccccn1 [SER177]	0.218 ± 0.0093	253 ± 65.6	66.6 ± 16.2	43.3 ± 11.1	198 ± 66.7					0.0008 ± 5e-05	
